Data published in PMC11157048 (Frontiers in Pharmacology, 2024).
Read-outs that look alike come from different tables or passages of the source.

Legend:
[1] = tested on: rat liver microsomes (RLM); experiment: Inhibition of aumolertinib metabolism in rat liver microsomes (screen, IC50, Ki)
Description: (§1) When screening for inhibitors, the amount of RLM in the system and the reaction time were optimized and set to 0.5 mg/mL and 30 min, respectively. The concentration of the inhibitor was set at 100 μM. […] The above mixture was pre-incubated at 37 °C for 5 min, and then 1 mM NADPH was added to initiate the reaction, and incubated for another 30 min. Afterwards, 400 μL of cold acetonitrile and 20 μL of diazepam (500 ng/mL) were added to the system to stop the reaction. After vortexing for 2 min, the mixture is centrifuged at 16,200 g for 10 min and the supernatant is subjected to analysis by UPLC-MS/MS for the detection of analytes.

[2] = tested on: human liver microsomes (HLM); experiment: Inhibition of aumolertinib metabolism in human liver microsomes (IC50, Ki); assay type: in vitro ADME; conditions: HLM
Description: as §1

[3] = tested on: aumolertinib metabolism in human liver microsomes; experiment: as above; assay type: in vitro ADME; conditions: human, human liver microsomes, probe aumolertinib 20 μM
Description: as §1

CYP3A4.1 = CYP3A4.1 (Homo sapiens, UniProt P08684)
[4] = tested on: aumolertinib metabolism in rat liver microsomes; experiment: in vitro; conditions: probe aumolertinib 25 μM
Description: as §1

[5] = mouse, in vivo, po
[6] = rat, in vivo, po, 11 mg/kg
[7] = Pharmacokinetics in AAV8-CYP3A4*1 mice
[8] = set-up: method as in Zhou et al., 2021; Liu et al., 2022a; Liu et al., 2022b; conditions: ref Zhou et al., 2021, Liu et al., 2022a, 2022b; cited from earlier work
[9] = aumolertinib 16.5 mg/kg oral alone (Aum)
[10] = carvedilol 7.5 mg/kg 0.5 h before aumolertinib 16.5 mg/kg oral (Car+Aum)

Sequence of CYP3A4.1 (P08684 whole entry): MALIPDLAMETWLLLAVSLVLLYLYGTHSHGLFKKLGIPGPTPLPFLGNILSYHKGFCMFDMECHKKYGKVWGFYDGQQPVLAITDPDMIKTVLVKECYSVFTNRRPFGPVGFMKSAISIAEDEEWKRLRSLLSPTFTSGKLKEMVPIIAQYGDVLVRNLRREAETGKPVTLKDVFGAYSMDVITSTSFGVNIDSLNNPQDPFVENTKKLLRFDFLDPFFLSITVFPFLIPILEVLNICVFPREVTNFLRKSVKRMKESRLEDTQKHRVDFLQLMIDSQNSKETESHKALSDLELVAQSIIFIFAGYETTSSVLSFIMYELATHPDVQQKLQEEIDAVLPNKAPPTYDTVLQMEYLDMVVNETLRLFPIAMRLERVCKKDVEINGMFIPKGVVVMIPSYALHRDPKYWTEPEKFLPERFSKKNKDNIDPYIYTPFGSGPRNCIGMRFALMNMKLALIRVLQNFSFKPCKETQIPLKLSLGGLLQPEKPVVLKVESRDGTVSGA

COc1ccccc1OCCNCC(O)COc1cccc2[nH]c3ccccc3c12 (stereo not shown) [Carvedilol]
inhibition mechanism [1]: non-competitive and competitive mixed | Ki ([1]; Lineweaver-Burk secondary plot): 16.7 µM | αKi ([1]; Lineweaver-Burk secondary plot): 51.66 µM | inhibition mechanism [2]: non-competitive and competitive mixed | Ki ([2]; Lineweaver-Burk secondary plot): 8.81 µM | αKi ([2]; Lineweaver-Burk secondary plot): 47.76 µM | IC50 at 30 min [3]: 12.7 ± 0.59 µM | inhibition mechanism (CYP3A4.1): competitively inhibited | IC50 at 30 min [4]: 27.3 ± 2.52 µM

C=CC(=O)Nc1cc(Nc2nccc(-c3cn(C4CC4)c4ccccc34)n2)c(OC)cc1N(C)CCNC [HAS-719]
AUC(0-t) [5]: 429.91 ± 178.00 µg·h/L | AUC(0-∞) [5]: 572.38 ± 354.11 µg·h/L | CLz/F [5]: 35.20 ± 14.99 L/h/kg | Cmax [5]: 23.01 ± 11.89 µg/L | Tmax [5]: 14.29 ± 13.44 h | Vz/F [5]: 773.46±1,086.45 L/kg | t1/2z [5]: 14.62 ± 18.23 h | CLz/F [6]: 345.03 ± 157.05 L/h/kg | Vz/F [6]: 1,913.68 ± 1,058.91 L/kg | t1/2z [6]: 3.69 ± 0.57 h | AUC(0-t) [7, 9]: 905.88 ± 375.90 µg·h/L | AUC(0-∞) [7, 9]: 908.18 ± 374.69 µg·h/L | CLz/F [7, 9]: 20.10 ± 7.69 L/h/kg | Cmax [7, 9]: 47.06 ± 20.43 µg/L | Tmax [7, 9]: 10.71 ± 9.53 h | Vz/F [7, 9]: 113.97 ± 104.36 L/kg | t1/2z [7, 9]: 3.80 ± 2.94 h | AUC(0-t) [7, 10]: 663.56 ± 198.24 µg·h/L | AUC(0-∞) [7, 10]: 669.24 ± 196.18 µg·h/L | CLz/F [7, 10]: 25.43 ± 6.17 L/h/kg | Cmax [7, 10]: 34.97 ± 15.02 µg/L | Tmax [7, 10]: 17.86 ± 10.53 h | Vz/F [7, 10]: 203.88 ± 121.79 L/kg | t1/2z [7, 10]: 5.34 ± 2.61 h | plasma exposure relative to the parent drug [8]: 40%

CCCc1nc2c(C)cc(-c3nc4ccccc4n3C)cc2n1Cc1ccc(-c2ccccc2C(=O)O)cc1 [Telmisartan]
inhibition mechanism [1]: mixed (non-competitive and uncompetitive) | α [1]: 0.54 | α ([1]; listed as telmisartan): < 1 | α [2]: 0.59 | α ([2]; listed as telmisartan): < 1 | IC50 at 30 min [4]: 12.8 ± 0.18 µM
